Like-named read-outs stand apart in the source and are kept apart here.
What was measured:
[1] = system: P. syringae TTSS secretion (AvrPto, Pst DC3000); details: for abundance of AvrPto in total protein (bacteria): total / intracellular protein; for abundance of AvrPto in total protein (bacteria) / inhibition of AvrPto secretion in Pst DC3000: immunoblot; for inhibition of AvrPto secretion in Pst DC3000: supernatant protein, indicated concentrations or dilutions
Pst DC3000 = experiment: Growth curve of Pst DC3000 in KB medium; format: cell-based, P. syringae; details: 150 μM
[2] = system: Pst T1 effector AvrPto secretion; experiment: AvrPto secretion of Pst T1 (immunoblot); format: cell-based; details: 24 h incubation, versus untreated bacteria
[3] = system: Xcc8004 effector AvrAc secretion; experiment: AvrAC protein accumulation and secretion of Xcc8004 (immunoblot); format: cell-based; details: 24 h incubation, versus untreated bacteria
Description: To determine AvrAC protein accumulation and secretion, Xcc8004 strain expressing HA-tagged AvrAC was cultivated at 28° C. in NYG rich medium (3 g/L yeast extract, 5 g/L peptone, 20 g/L glycerol, pH 7.0). […] Total and supernatants protein were analyzed by immunoblot by indicated antibodies.

[4] = system: S. typhimurium effector SopF secretion; experiment: SopF protein accumulation and secretion of Salmonella Typhimurium (immunoblot); format: cell-based, Salmonella Typhimurium 14028S; details: 24 h incubation, versus untreated bacteria
Description: To determine SopF protein accumulation and secretion, Salmonella Typhimurium 14028S expressing His-tagged SopF was cultivated at 37° C. in LB medium and then subcultured (1:100) in fresh 30 mL LB medium with erucamide or solvent to an OD600 of 0.2. After induction with 0.5 mM IPTG, whole cells and culture supernatants were separated by centrifugation at 5000 RPM for 10 min. The pellet was resuspended by PBS as cytoplasmic protein sample. The supernatants were filtered (0.22 μm pore-size) and then precipitated by adding trichloroacetic acid at a final concentration of 10% v/v, followed by incubation at 4° C. overnight and centrifugation (20000 g, 4° C., 30 min). The pellet was washed twice by cold acetone and analyzed by immunoblot using anti-His antibodies. For control, anti-DnaK antibodies were used.

Pst DC3000 hrcQ mutant = experiment: Bacterial growth assay on N. benthamiana leaves; format: in vivo; details: 150 μM
P. actinidiae = experiment: Bacterial canker of kiwifruit, leaf inoculation; format: in vivo; details: 1 mM, sprayed with bacteria on leaves
[5] = system: Xanthomonas oryzae pv. oryzae (Xoo) isolate P6; format: in vivo, rice; details: 1 mM, Xoo P6, leaf clipping, 12 days after inoculation, versus solvent
R. solanacearum = format: in vivo, tomato; details: 1 mM, soil drenching, versus solvent
[6] = system: Pst DC3000 TTSS injectisome (Hrp pilus) assembly; format: cell-based, P. syringae; details: 0.2 mM, TEM
[7] = system: Pst DC3000 injectisome structural proteins (HrpA, HrcQb); experiment: Injectisome structural proteins in cellular and membrane fractions (quantitative proteomics, immunoblot); format: cell-based, P. syringae; details: 0.2 mM
Description: To isolate the membrane fraction, bacterial cells were harvested, washed with 10 mM Tris-HCl at pH 8.0, centrifuged and the supernatants were carefully discarded. The cell pellets were then resuspended in spheroplast buffer (20 mM Tris pH 8.0, 20% sucrose, 1 mM Na-EDTA), incubated for 10 min and centrifuged. The pellets were then resuspended in ice hypotonic solution (sterile water) and the sample were incubated for 10 min on ice. After centrifugation, the resulting pellets were resuspended in 10 mM Tris-HCl at pH 8.0 and sonicated. After centrifugation, the supernatants were carefully transferred to new tubes and centrifuged again for 40 min. The pellets were washed by sterile water and centrifuged for another 40 min. The pellets were resuspended in water as membrane proteins.

[8] = system: Pst DC3000 TTSS gene transcription (avrPto, hrpL)

## CCCCCC/C=C\CCCCCCCC(N)=O [Compound T3SI-6]
[1]
  abundance of AvrPto in total protein (bacteria): decrease

## CCCCCCCC/C=C\CCCCCCCCCCCC(=O)NCC [Compound T3SI-16, N-ethyl-13(Z)-Docosenamide]
[1]
  inhibition of AvrPto secretion in Pst DC3000: effectively inhibited

## CCCCCCCC/C=C\CCCCCCCCCCCC(=O)NO [Compound T3SI-24, (Z)—N-hydroxydocos-13-enamide]
[1]
  abundance of AvrPto in total protein (bacteria): decrease

## CCCCCCCCc1ccccc1CCCCCCCCCCCC(N)=O [Compound T3SI-21, 12-(2-octylphenyl)dodecanamide]
[1]
  abundance of AvrPto in total protein (bacteria): decrease

## C=CCCCCCCCCCCCC(N)=O [Compound T3SI-12, 13-Tetradecenoic acid amide]
[1]
  inhibition of AvrPto secretion in Pst DC3000: effectively inhibited

## CCCCCCCCCCCC(N)=O [Compound T3SI-26]
[1]
  inhibition of AvrPto secretion in Pst DC3000: effectively inhibited

## CCCCCCCCCCCCCCCCCC(N)=O [Compound T3SI-8]
[1]
  inhibition of AvrPto secretion in Pst DC3000: effectively inhibited

## CCCCCC/C=C\CCCC(N)=O [Compound T3SI-29]
[1]
  abundance of AvrPto in total protein (bacteria): decrease

## CCCCCCCC/C=C/CCCCCCCCCCCC(N)=O [Compound T3SI-2, (E)-13-docosenamide]
[1]
  inhibition of AvrPto secretion in Pst DC3000: effectively inhibited

## CCCCCCCCCCCCCCCC(N)=O [Compound T3SI-9]
[1]
  inhibition of AvrPto secretion in Pst DC3000: effectively inhibited

## CCCCCCCC/C=C\CCCCCCCCCCCC(N)=O (single isomer, unassigned) [Compound T3SI-1, erucamide]
Pst DC3000; listed as Erucamide
  growth of Pst DC3000: does not affect
Pst DC3000; listed as erucamide
  growth of Pst DC3000: no effect
[2]; listed as Erucamide
  secretion of AvrPto in Pst T1: inhibits
[2]; listed as erucamide
  secretion of AvrPto in Pst T1: significantly lower
[3]; listed as Erucamide
  secretion of AvrAc in Xcc8004: inhibits
[3]; listed as erucamide
  secretion of AvrAc in Xcc8004: significantly lower
[4]; listed as Erucamide
  secretion of SopF in S. typhimurium: inhibits
[4]; listed as erucamide
  secretion of SopF in S. typhimurium: significantly lower
Pst DC3000 hrcQ mutant
  Pst DC3000 hrcQ growth on N. benthamiana: inhibited
Pst DC3000 hrcQ mutant; N. benthamiana leaves, 3 days after inoculation
  bacteria population in treated plants, less than in untreated plants: 5 fold
P. actinidiae; listed as Erucamide
  disease symptoms caused by P. actinidiae on kiwifruit leaves: decreased the disease symptoms
P. actinidiae; listed as erucamide
  disease symptoms caused by P. actinidiae on kiwifruit leaves: significantly decrease the disease symptoms
[5]; listed as Erucamide
  rice bacterial blight lesion length: protective effects
[5]; listed as erucamide
  rice bacterial blight lesion length: significantly shorter
R. solanacearum; listed as Erucamide
  disease symptoms / virulence of R. solanacearum on tomato: decreased the virulence
R. solanacearum; listed as erucamide
  disease symptoms / virulence of R. solanacearum on tomato: significantly decreased disease symptoms
[6]
  flagella production: slightly blocked
[6]; listed as Erucamide
  Hrp pilus (TTSS injectisome) assembly: inhibited
[6]; listed as erucamide
  Hrp pilus (TTSS injectisome) assembly: significantly inhibited
[6]; erucamide treatment group
  bacteria that had Hrp pilus: 3.3%
  bacteria that had flagella: 56.7%
[7]; immunoblot
  HrpA and HrcQb accumulation in membrane: inhibited
  levels of HrpA and HrcQb in cellular protein: did not change
[7]; quantitative proteomics
  amount of injectisome structure proteins in total protein: not altered
  injectisome structure protein accumulation in membrane: reduced
[1]; Pst DC3000
  concentration at which inhibition of AvrPto secretion was observed: 6 µM
[1]
  inhibition of AvrPto secretion in Pst DC3000: effectively inhibited
[1]; listed as Erucamide
  inhibition of AvrPto secretion in Pst DC3000: inhibits
[1]; listed as erucamide
  inhibition of AvrPto secretion in Pst DC3000: gradually decreased with increasing concentration
[1]; listed as fraction 9
  inhibition of AvrPto secretion in Pst DC3000: high activity
[8]; Pst DC3000 reporter genes, luciferase activity
  transcription activity of TTSS genes avrPto and hrpL and house-keeping gene trp: does not inhibit

## CCCCCCCC/C=C\CCCCCCCC(N)=O [Compound T3SI-5]
[1]
  abundance of AvrPto in total protein (bacteria): decrease

## CCCCCCCCCCCCCCCC(=O)NCCO [Compound T3SI-19, N-(2-hydroxyethyl)-Hexadecanamide]
[1]
  inhibition of AvrPto secretion in Pst DC3000: effectively inhibited

## CCCCCCCCCCCCCC(N)=O [Compound T3SI-25]
[1]
  inhibition of AvrPto secretion in Pst DC3000: effectively inhibited

## C[S+]([O-])CCCCN=C=S (stereo not shown) [SFN, reference compound]
[8]
  P. syringae TTSS gene expression: preferentially inhibits

## CCCCCCCC/C=C\CCCCCCCCCCCC(=O)NCCO [Compound T3SI-18, N-(2-hydroxyethyl)-13(Z)-Docosenamide]
[1]
  inhibition of AvrPto secretion in Pst DC3000: effectively inhibited

## CCCCCCCCCCCCCCCCCCCCCC(N)=O [Compound T3SI-7]
[1]
  inhibition of AvrPto secretion in Pst DC3000: effectively inhibited

## CCCCCCCCc1ccc(CCCCCCCCCCCC(N)=O)cc1 [Compound T3SI-22, 12-(4-octylphenyl)dodecanamide]
[1]
  abundance of AvrPto in total protein (bacteria): decrease

## CCCCCCCC/C=C\CCCCCCCCCCCCNC(N)=O [Compound T3SI-14, N-(13Z)-13-Docosen-1-ylurea]
[1]
  inhibition of AvrPto secretion in Pst DC3000: effectively inhibited

Source: patent publication US20250019341A1, “COMPOUNDS AND METHOD OF USE THEREOF FOR TREATING BACTERIAL DISEASES” (PEKING UNIVERSITY, priority 2021, published 2025)
